Test [1] deals with ICAM-1 expression in HUVECs. Description: ICAM-1 expression in HUVECs pre-treated 5 days with dexamethasone, then oxidatively stressed with PMA (ELISA). Format: cell-based, Human. The settings on record: then 1 μM PMA, HUVEC. The procedure:
An in vitro model has been developed to investigate the impact of chronic stress on the inflammatory status of endothelial cells. • a. Cells are grown in 6-well (9.5 cm^2) plates. • b. […] Tissue culture supernatant and cell pellets are harvested at timepoint T0. • d. The cells are oxidatively stressed with 1 μM Phorbol Myristate Acetate (PMA). • e. Tissue culture supernatant and cell pellets were harvested at 6, 24 and 48 hours (T6, T24 and T48, respectively) post-PMA treatment. • f. All tissue culture supernatant was assayed for Lactate Dehydrogenase (LDH), as a measure of cytotoxicity, and Interleukin-6 synthesis. • g. All cells were counted (Beckman Coulter Counter) and pelleted and cell lysate assayed for ICAM-1 expression (Intra Cellular Adhesion Molecule 1).
HUVEC cells (Human umbilical vein endothelial cells, TCS Biologicals) were cultured and passaged in EGM-2 (Endothelial growth medium, Biowhittaker) supplemented with heparin, VEGF (vascular endothelial growth factor), gentamicin sulphate, ascorbic acid, HEGF (Human endothelial growth factor), hydrocortisone, HFGF-B (Human fibroblast growth factor B), R3-IGF-1 (long R insulin-like growth factor 1) and FBS (foetal bovine serum).
Cells were routinely plated out in 6-well tissue culture dishes, at a seeding density of ˜5000 cells/cm^2 in 2 ml complete medium/well, 48 hours before starting the experiment, and incubated at 37° C. in 5% CO2.
Pre-treatment and test solutions were prepared in EGM-2 containing all supplements except hydrocortisone.
Following this, the cells were oxidatively stressed for 24 hours with 1 μM PMA (Sigma P8139).
Receptor antagonists were added to the cells during the pre-treatment period. These included the Glucocorticoid Receptor Antagonist; 2 μM Mifepristone (Sigma M8046) and two CRH receptor antagonists; 200 nM Astressin (Sigma A4933) and 200 nM α-helical CRF peptide antagonist (Sigma C2917).
Any change in cell morphology was noted before the cells were harvested. Both the tissue culture supernatant and the endothelial cells were harvested after the five-day pre-treatment period (T0), at 6 hours and 24 hours after addition of PMA (T6 and T24) and at 24 hours after removal of the PMA (T48). All tissue culture supernatants were stored at −20° C.
All cell pellets were lysed on ice for 30 minutes in 1 ml cell lysis buffer per 2.5×10^6 cells. The lysis buffer contained 1% NP-40, 0.1% sodium deoxycholate, 0.1% SDS, 6 mM sodium chloride and 0.05M Tris at pH 7.6. Protease inhibitor cocktail ([…]; Sigma P8340) was added prior to use at a level of 10 μl per ml of lysis buffer. The partially lysed cell pellets were completely homogenised with a pellet pestle and unwanted cell debris removed by centrifugation for 20 minutes at 20,000 g at 4° C. The clarified cell lysate was frozen at −80° C. until needed.
The total protein concentration of each cell lysate was measured using the Pierce BCA protein assay kit. A set of eight standard solutions ranging from 0 to 1200 μg/ml protein was prepared from the supplied 2 mg/ml BSA stock solution. 10 μl of standard or cell lysate was added to duplicate wells of a flat-bottomed, 96-well microtitre plate. The reagent solution was prepared according to the kit instructions from 50 parts reagent A and 1 part reagent B. 200 μl of the final reagent was added to each well of the microtitre plate. The plate was mixed, covered and incubated at 37° C. for 30 minutes and absorbance read at 562 nm.
ICAM-1 protein in each cell lysate was estimated using the Human sICAM-1 DuoSet ELISA kit (R&D Systems DY720) according to the manufacturer's instructions.
The capture antibody was diluted to a final concentration of 4 μg/ml in PBS and 100 μl was used to coat each well of a 96-well microtitre plate overnight at room temperature. The plate was then washed three times with wash buffer (0.05% Tween 20 in PBS).
(In general: In an ELISA, binding on a coated surface is turned into a signal by an enzyme label.)

Test [2] deals with MMP-1 expression in human neonatal dermal fibroblast cells. Briefly: Active MMP-1 in neonatal-derived human dermal fibroblasts after chronic dexamethasone and PMA. Format: cell-based. Conditions: agent added during dexamethasone pre-treatment; dermal fibroblasts. As for the experimental part: (§1) In this study, to understand better the effect of chronic stress on dermal matrix remodelling in the skin, we have therefore measured changes in markers of dermal matrix degradation (MMP-1) and dermal matrix synthesis (Procollagen I) in chronically glucocorticoid-treated primary human dermal fibroblasts, following acute stress with PMA. The experimental approach is similar to that described in example 1 except that the cells tested are dermal fibroblasts and cells are assayed for expression of procollagen-1, MMP-1 and MMP-9 expression.
(§2) Primary human dermal fibroblast cells were cultured and passaged in DMEM (Gibco) supplemented with 10% FBS (foetal bovine serum). Cells were routinely plated out in 6-well tissue culture dishes, at a seeding density of ˜5000 cells/cm^2 in 2 ml complete medium/well for 24 hours, and incubated at 37° C. in 5% CO2. Media was removed and cells grown in DMEM & 1% FBS, 24 hours prior to treatments.
(§3) Pre-treatment and test solutions were prepared in DMEM containing low serum (1% FBS). […] Following this, the cells were oxidatively stressed for 24 hours with 1 μM PMA (Sigma P8139).
MMP-1 and MMP-9 protein in each cell supernatant was estimated using the Human active MMP-1 and MMP-9 Fluorokine enzyme kit (R&D Systems F1M00 and F9M00, respectively), according to the manufacturer's instructions.
Six MMP-1 and MMP-9 standards were prepared in calibrator diluent at concentrations ranging from 0.39 to 12.5 ng/ml and 0.25 to 16 ng/ml, respectively. 100 μl of assay diluent and 150 μl of tissue culture supernatant or standard was added to duplicate wells. The plate was incubated at room temperature for 3 hours on a horizontal orbital plate shaker before being washed four times with wash buffer. 200 μl of APMA was added to each well and the plate incubated at 37° C. for 2 hours in a humidified environment and protected from the light. The plate was washed as before. Each well received 200 μl of substrate solution and the plate incubated at 37° C. for 17-20 hours in a humidified environment and protected from the light. The relative fluorescence unit (RFU) of each well was determined using a fluorescence plate set with 1×20 mS integration time, plate speed ˜6; excitation wavelength set to 320 nm and emission wavelength set to 405 nm.
A standard curve was plotted of mean RFU versus MMP-1 and MMP-9 concentration (respectively), and the line of best fit calculated by regression analysis. The unknown concentration of either active MMP-1 or MMP-9 protein in all of the samples was estimated from this.
(§4) The same methods were used as described in Example 2, except that various test agents were added to the cells during the pre-treatment period.

Test [3] relates to procollagen-1 expression in human neonatal dermal fibroblast cells. Briefly: Procollagen I C-peptide EIA in neonatal-derived human dermal fibroblasts after chronic dexamethasone and PMA. Format: cell-based. The settings on record: agent added during dexamethasone pre-treatment; dermal fibroblasts. The procedure: as §1, §2, §3
Collagen I is synthesised as a precursor molecule, Procollagen I. The amount of free propeptide therefore, reflects stoichiometrically, the amount of collagen I synthesised. The Procollagen Type I C-peptide Enzyme Immunoassay (EIA) kit allows for the quantitative determination of Procollagen Type I C-peptide (PIP).
Eight PIP standards were prepared in sample diluent at concentrations ranging from 0 to 640 ng/ml. 100 μl of antibody-Peroxidase conjugate solution and 20 μl of cell lysate (1 μg protein) or standard was added to duplicate wells. The plate was sealed and incubated at 37° C. for 3 hours before being washed four times with 400 μl of PBS. Each well then received 100 μl of substrate solution and the plate incubated at room temperature, on the benchtop, for 15 minutes. After this period, 100 μl stop solution was added to each well and absorbance measured at 450 nm with a plate reader.
A standard curve was plotted of mean absorbance versus PIP concentration and the line of best fit calculated by regression analysis. The unknown concentration of PIP in all the samples was estimated from this.
as §4

Setting [4] is: agent 1 μM during 5-day 1 μM dexamethasone pre-treatment.
Setting [5] is: agent 10 μM during 5-day 1 μM dexamethasone pre-treatment.

“Also recorded” adds a separate entry of the source.

Mevinolin: the “Effective? (suppression of ICAM-1 synthesis in chronically stressed endothelial cells)” value (from here on “Effective?”) in test [1] (setting [4]) is “Yes”. With `Cc1cccc(Nc2cc(Cl)nc(SCC(=O)O)n2)c1C` [WY14643], in test [1] (setting [5]), the “Effective?” value is on record as “No”.

Consider `CC(C)CC[C@@H](O)[C@@H](C)[C@H]1CC[C@H]2[C@@H]3CC=C4C[C@@H](O)CC[C@]4(C)[C@H]3CC[C@]12C` [22-OH-cholesterol, 22-(R)-Hydroxycholesterol], for which the “Effective?” value in test [1] (setting [4]) was “Yes”. For `C=C1[C@@H](O)[C@@H]2O[C@]3(CC[C@H](/C=C/[C@@H](C)[C@@H]4CC(C)=C[C@@]5(O[C@H](C[C@@](C)(O)C(=O)O)CC[C@H]5O)O4)O3)CC[C@H]2O[C@@H]1[C@@H](O)C[C@H](C)[C@H]1O[C@@]2(CCCCO2)CC[C@H]1C` [Okadaic acid], the “Effective?” value in test [1] (agent 1 nM during 5-day 1 μM dexamethasone pre-treatment) is listed as “Yes”. On to `COc1cc(/C=C/C(=O)CC(=O)/C=C/c2ccc(O)c(OC)c2)ccc1O` [Curcumin], for which the “Effect on glucocorticoid effects on levels of MMP-1 expression following PMA-induced acute stress” value in test [2] is reported as “inhibited the effects of glucocorticoid”. For the same molecule, the “Effective?” value in test [1] (setting [4]) is recorded as “Yes”. Also, in test [3], the “Effect on glucocorticoid effects on levels of procollagen expression following PMA-induced acute stress” value is on record as “inhibited the effects of glucocorticoid”. Take `CC(C)=CCC[C@](C)(O[C@@H]1O[C@H](CO[C@@H]2O[C@@H](CO)[C@H](O)[C@H]2O)[C@@H](O)[C@H](O)[C@H]1O)[C@H]1CC[C@]2(C)[C@@H]1[C@H](O)C[C@@H]1[C@@]3(C)CC[C@H](O[C@@H]4O[C@H](CO)[C@@H](O)[C@H](O)[C@H]4O[C@@H]4O[C@H](CO)[C@@H](O)[C@H](O)[C@H]4O)C(C)(C)[C@@H]3CC[C@]12C` [Ginsenoside Rc]: the “Effect on glucocorticoid effects on levels of MMP-1 expression following PMA-induced acute stress” value in test [2] is “inhibited the effects of glucocorticoid”. Besides, in test [1] (setting [4]), the “Effective?” value is “Yes”. For the same molecule, in test [3], the “Effect on glucocorticoid effects on levels of procollagen expression following PMA-induced acute stress” value is reported as “inhibited the effects of glucocorticoid”. Regarding `CCNC(=O)CC[C@H](N)C(=O)O` [Theanine], the “Effective?” value in test [1] (setting [5]) was “No”. On to `C/C(=C\CC/C(C)=C/CCC1[C@](C)(O)CC[C@H]2C(C)(C)C(=O)CC[C@]12C)CC/C=C(\C)C(=O)O` (stereo partly shown) [Commipheric acid], for which, in test [2], the “Effect on glucocorticoid effects on levels of MMP-1 expression following PMA-induced acute stress” value is recorded as “inhibited the effects of glucocorticoid”. Also, the “Effective?” value in test [1] (agent 10 μg/ml during 5-day 1 μM dexamethasone pre-treatment) was “Yes”. Further, in test [3], the “Effect on glucocorticoid effects on levels of procollagen expression following PMA-induced acute stress” value is “inhibited the effects of glucocorticoid”. Turning to Alliin, in test [1] (setting [5]), the “Effective?” value was “No”. As to `CC#C[C@]1(O)CC[C@H]2[C@@H]3CCC4=CC(=O)CCC4=C3[C@@H](c3ccc(N(C)C)cc3)C[C@@]21C` [Mifepristone], the “ICAM-1 expression compared with cells without chronic GC treatment” value in test [1] (2 μM mifepristone during chronic 1 μM glucocorticoid pre-treatment) was “below that seen in cells that had not received chronic GC treatment”. The “Effect on oxidative stress-induced increase in ICAM-1 expression” value in test [1] (2 μM mifepristone during chronic 1 μM glucocorticoid pre-treatment, FIG. 3) is recorded as “significant reduction; also recorded: completely blocked”. As for `O=C(O)/C=C/c1ccc(O)c(O)c1` [Caffeic acid], the “Effective?” value in test [1] (agent 150 μM during 5-day 1 μM dexamethasone pre-treatment) is reported as “No”. As to `Oc1ccc(C=Cc2cc(O)cc(O)c2)cc1` [Resveratrol], the “Effective?” value in test [1] (setting [5]) was “No”.

`CC(C)=CCC[C@](C)(O[C@@H]1O[C@H](CO[C@@H]2O[C@H](CO)[C@@H](O)[C@H](O)[C@H]2O)[C@@H](O)[C@H](O)[C@H]1O)[C@H]1CC[C@]2(C)[C@@H]1[C@H](O)C[C@@H]1[C@@]3(C)CC[C@H](O[C@@H]4O[C@H](CO)[C@@H](O)[C@H](O)[C@H]4O[C@@H]4O[C@H](CO)[C@@H](O)[C@H](O)[C@H]4O)C(C)(C)[C@@H]3CC[C@]12C` [Ginsenoside Rb1]: in test [2], the “Effect on glucocorticoid effects on levels of MMP-1 expression following PMA-induced acute stress” value is recorded as “inhibited the effects of glucocorticoid”. For the same molecule, the “Effective?” value in test [1] (setting [4]) was “Yes”. Besides, in test [3], the “Effect on glucocorticoid effects on levels of procollagen expression following PMA-induced acute stress” value is listed as “inhibited the effects of glucocorticoid”.
